From paper PMC12518996 (Frontiers in Pharmacology, 2025) come the findings set out here.

What all share (format): in vitro ADME
What all share (conditions): trazodone 4 μM; NADPH; 37 °C, 40 min

One series deals with T1, CYP2B6 (Homo sapiens, UniProt P20813).
T1 sequence (P20813 1-491): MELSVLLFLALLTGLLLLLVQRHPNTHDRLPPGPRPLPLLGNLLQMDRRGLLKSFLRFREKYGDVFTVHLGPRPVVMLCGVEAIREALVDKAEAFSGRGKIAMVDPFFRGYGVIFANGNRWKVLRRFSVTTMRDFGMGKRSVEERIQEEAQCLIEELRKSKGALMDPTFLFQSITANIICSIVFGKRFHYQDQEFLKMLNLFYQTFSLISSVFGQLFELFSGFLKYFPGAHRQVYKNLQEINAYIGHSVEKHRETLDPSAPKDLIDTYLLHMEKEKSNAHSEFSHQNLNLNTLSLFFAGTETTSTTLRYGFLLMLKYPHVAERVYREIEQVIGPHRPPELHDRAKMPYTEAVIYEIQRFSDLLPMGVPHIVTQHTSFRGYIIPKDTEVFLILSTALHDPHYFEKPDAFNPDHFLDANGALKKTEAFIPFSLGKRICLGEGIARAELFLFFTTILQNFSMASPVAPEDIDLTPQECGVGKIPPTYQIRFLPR
The series is described as follows: Metabolite formation by recombinant human CYP2B6. As to the method:
(§1) To confirm the role of individual CYP isoforms in metabolizing trazodone, recombinant human and rat CYP enzymes were employed in separate incubations. […] Each reaction was terminated with acetonitrile, centrifuged, and the supernatant was analyzed by identical UHPLC-Orbitrap setup outlined in §2.2, allowing direct comparison of metabolite spectra across all in-vitro systems. […] This procedure helped confirm the contributions of individual isoforms to specific biotransformation reactions.

Another series deals with T2, CYP2C8 (Homo sapiens, UniProt P10632).
T2 sequence (P10632 1-490): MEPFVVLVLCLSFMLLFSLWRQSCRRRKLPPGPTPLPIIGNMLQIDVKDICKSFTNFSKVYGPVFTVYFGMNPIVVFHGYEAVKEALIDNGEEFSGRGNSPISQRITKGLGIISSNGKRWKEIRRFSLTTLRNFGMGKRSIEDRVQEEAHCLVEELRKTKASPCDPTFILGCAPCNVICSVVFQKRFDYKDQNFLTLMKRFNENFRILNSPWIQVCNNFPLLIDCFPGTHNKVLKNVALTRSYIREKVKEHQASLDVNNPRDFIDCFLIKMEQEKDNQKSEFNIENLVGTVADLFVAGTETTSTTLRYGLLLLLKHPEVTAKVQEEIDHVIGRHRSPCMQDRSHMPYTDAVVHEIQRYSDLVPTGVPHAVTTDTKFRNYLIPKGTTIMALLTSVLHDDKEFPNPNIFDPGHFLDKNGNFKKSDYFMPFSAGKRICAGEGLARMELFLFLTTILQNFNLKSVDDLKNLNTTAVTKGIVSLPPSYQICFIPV
The series can be described thus: Metabolite formation by recombinant human CYP2C8. The protocol:
as §1

A further series deals with CYP2C19 (Homo sapiens, UniProt P33261). The series is described as follows: Metabolite formation by recombinant human CYP2C19. As to the method: as §1
CYP2C19, sequence (P33261 whole entry): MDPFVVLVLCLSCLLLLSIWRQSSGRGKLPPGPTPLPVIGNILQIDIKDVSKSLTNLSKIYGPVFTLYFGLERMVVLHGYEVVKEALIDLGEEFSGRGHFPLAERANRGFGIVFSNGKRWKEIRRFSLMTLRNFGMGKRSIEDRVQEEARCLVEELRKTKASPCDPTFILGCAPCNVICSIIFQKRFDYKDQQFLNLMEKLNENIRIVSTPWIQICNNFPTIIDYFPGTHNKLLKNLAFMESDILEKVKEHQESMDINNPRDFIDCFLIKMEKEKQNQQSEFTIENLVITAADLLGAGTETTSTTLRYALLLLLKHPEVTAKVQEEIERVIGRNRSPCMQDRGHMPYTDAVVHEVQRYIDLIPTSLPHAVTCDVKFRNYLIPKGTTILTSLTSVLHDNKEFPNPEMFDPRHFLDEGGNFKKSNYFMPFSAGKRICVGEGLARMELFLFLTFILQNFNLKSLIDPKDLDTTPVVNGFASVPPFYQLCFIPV
The next series has as its target CYP3A4 (Homo sapiens, UniProt P08684). The series is described as follows: Metabolite formation by recombinant human CYP3A4. The protocol: Each reaction was terminated with acetonitrile, centrifuged, and the supernatant was analyzed by identical UHPLC-Orbitrap setup outlined in §2.2, allowing direct comparison of metabolite spectra across all in-vitro systems.

For a further series, the target named is T3, CYP1B1 (Rattus norvegicus, UniProt Q64678).
T3 sequence (Q64678 1-543): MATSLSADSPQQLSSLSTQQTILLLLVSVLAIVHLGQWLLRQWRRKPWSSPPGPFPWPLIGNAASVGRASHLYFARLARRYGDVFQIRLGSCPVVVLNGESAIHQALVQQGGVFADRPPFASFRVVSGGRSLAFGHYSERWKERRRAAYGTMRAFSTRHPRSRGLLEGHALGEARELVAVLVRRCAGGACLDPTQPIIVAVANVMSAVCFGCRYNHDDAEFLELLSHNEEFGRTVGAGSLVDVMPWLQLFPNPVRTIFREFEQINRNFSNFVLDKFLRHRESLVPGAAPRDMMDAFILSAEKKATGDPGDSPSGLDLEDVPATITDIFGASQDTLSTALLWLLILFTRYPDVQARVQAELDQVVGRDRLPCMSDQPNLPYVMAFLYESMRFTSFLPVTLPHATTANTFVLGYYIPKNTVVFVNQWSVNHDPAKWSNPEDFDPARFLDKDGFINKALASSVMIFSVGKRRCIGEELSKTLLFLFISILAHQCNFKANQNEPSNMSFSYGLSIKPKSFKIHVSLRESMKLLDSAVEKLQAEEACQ
The series can be described thus: Metabolite formation by recombinant rat CYP1B1. As to the method: as §1

For the next series, the target named is T4, CYP2C11 (Rattus norvegicus, UniProt P08683).
T4 sequence (P08683 1-500): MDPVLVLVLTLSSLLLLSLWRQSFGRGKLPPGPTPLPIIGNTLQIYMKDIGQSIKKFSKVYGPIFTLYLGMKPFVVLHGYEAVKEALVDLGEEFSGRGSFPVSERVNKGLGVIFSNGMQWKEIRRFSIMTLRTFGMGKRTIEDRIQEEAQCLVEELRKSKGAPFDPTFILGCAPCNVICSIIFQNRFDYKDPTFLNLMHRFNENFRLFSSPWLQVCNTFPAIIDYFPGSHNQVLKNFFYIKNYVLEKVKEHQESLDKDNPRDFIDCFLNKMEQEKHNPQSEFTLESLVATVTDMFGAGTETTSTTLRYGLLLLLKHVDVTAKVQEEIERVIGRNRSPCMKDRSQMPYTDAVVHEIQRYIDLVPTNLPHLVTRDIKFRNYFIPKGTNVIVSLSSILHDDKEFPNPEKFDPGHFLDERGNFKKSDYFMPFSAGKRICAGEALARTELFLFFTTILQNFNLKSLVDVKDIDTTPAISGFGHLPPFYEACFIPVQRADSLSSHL
The series can be described thus: Metabolite formation by recombinant rat CYP2C11. As to the method: as §1

CYP3A4, sequence (P08684 whole entry): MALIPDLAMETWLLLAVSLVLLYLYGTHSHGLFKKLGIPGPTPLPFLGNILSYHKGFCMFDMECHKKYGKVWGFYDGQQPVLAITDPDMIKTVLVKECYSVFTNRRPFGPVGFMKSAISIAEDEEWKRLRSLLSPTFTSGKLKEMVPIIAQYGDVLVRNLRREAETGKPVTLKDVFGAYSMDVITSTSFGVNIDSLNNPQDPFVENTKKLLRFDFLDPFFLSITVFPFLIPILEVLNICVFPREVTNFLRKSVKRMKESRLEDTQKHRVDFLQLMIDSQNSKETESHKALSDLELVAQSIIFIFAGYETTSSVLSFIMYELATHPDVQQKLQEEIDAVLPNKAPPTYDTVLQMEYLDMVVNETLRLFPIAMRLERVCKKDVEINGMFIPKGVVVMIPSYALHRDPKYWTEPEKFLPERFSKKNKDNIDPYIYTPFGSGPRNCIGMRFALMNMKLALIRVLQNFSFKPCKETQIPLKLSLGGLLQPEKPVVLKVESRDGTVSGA

As to `O=c1n(CCCN2CCNCC2)nc2ccccn12` [Metabolite M15], on CYP2B6, the “Formation of trazodone phase I metabolite by recombinant human CYP2B6 (as LC/MS peak areas)” value is 0. Moreover, the “Formation of trazodone phase I metabolite by recombinant human CYP2C8 (as LC/MS peak areas)” value at CYP2C8 is 26. Further, the “Formation of trazodone phase I metabolite by recombinant human CYP2C19 (as LC/MS peak areas)” value on CYP2C19 is on record as 180. Moreover, the “Formation of trazodone phase I metabolite by recombinant human CYP3A4 (as LC/MS peak areas)” value at CYP3A4 is 6716. Besides, the “Formation of trazodone phase I metabolite by recombinant rat CYP1B1 (as LC/MS peak areas)” value at CYP1B1 turned out to be 22. For the same compound, the “Formation of trazodone phase I metabolite by recombinant rat CYP2C11 (as LC/MS peak areas)” value on CYP2C11 is given as 1210.

Consider `O=c1n(CCCO)nc2ccccn12` [Metabolite M20], for which, at CYP2B6, the “Formation of trazodone phase I metabolite by recombinant human CYP2B6 (as LC/MS peak areas)” value is on record as 0. Besides, the “Formation of trazodone phase I metabolite by recombinant human CYP2C8 (as LC/MS peak areas)” value on CYP2C8 is reported as 0. Besides, at CYP2C19, the “Formation of trazodone phase I metabolite by recombinant human CYP2C19 (as LC/MS peak areas)” value is on record as 0. In addition, on CYP3A4, the “Formation of trazodone phase I metabolite by recombinant human CYP3A4 (as LC/MS peak areas)” value is on record as 236. In addition, the “Formation of trazodone phase I metabolite by recombinant rat CYP1B1 (as LC/MS peak areas)” value at CYP1B1 is reported as 94. Also, the “Formation of trazodone phase I metabolite by recombinant rat CYP2C11 (as LC/MS peak areas)” value on CYP2C11 stood at 743.

Take `Clc1cccc(N2CCNCC2)c1` [mCPP, m-chlorophenylpiperazine]: the “Formation of trazodone phase I metabolite by recombinant human CYP2B6 (as LC/MS peak areas)” value on CYP2B6 came to 112. The “Formation of trazodone phase I metabolite by recombinant human CYP2C8 (as LC/MS peak areas)” value on CYP2C8 is recorded as 327. Besides, the “Formation of trazodone phase I metabolite by recombinant human CYP2C19 (as LC/MS peak areas)” value on CYP2C19 amounted to 189. Further, on CYP3A4, the “Formation of trazodone phase I metabolite by recombinant human CYP3A4 (as LC/MS peak areas)” value came out at 32991. The “Formation of trazodone phase I metabolite by recombinant rat CYP1B1 (as LC/MS peak areas)” value on CYP1B1 is 724. Further, the “Formation of trazodone phase I metabolite by recombinant rat CYP2C11 (as LC/MS peak areas)” value on CYP2C11 came to 6920.
